Usually inhibition stands for the drop in the measured response relative to a control, in per cent. The Vd is the apparent volume that relates the amount in the body to the concentration in plasma or blood. As usually defined, the Cmax is the maximum level reached in the sampled fluid or tissue. A word on the Tmax: it is the time at which the peak concentration occurs. As usually defined, the IC50 is the concentration that inhibits the measured activity by half. Read a low IC50 as greater potency in that assay.

The values below come from paper PMC3305890, “Synthesis and pharmacological characterization of potent, selective, and orally bioavailable isoindoline class dipeptidyl peptidase IV inhibitors” (Organic and Medicinal Chemistry Letters, 2011).

Where two headings read alike, the source gives them in different places.

One series has as its target T1, plasma DPP-IV (Rattus norvegicus, UniProt P14740).
T1 construct: from tissue; host or cells: plasma of Wistar/ST rats
The series can be described thus: Inhibition of rat plasma DPP-IV ex vivo during OGTT. Particulars: for inhibition at 1 mg/kg: 1 mg/kg oral. In kind it is in vivo, Wistar/ST rats. As to the method: After 30 min (t = 0), oral glucose challenges (1 g/kg) were conducted and then plasma DPP-IV activities and blood glucose levels were monitored at various intervals over a 2 h period. […].
(§1) All procedures were approved by the Sanwa Kagaku Kenkyusho Institutional Animal Care and Use Committee. 7-week old Wistar/ST rats were housed under standard conditions and allowed free access to water and a commercial diet for at least 5 days. […] After an oral glucose challenge (5 mL/kg of an aqueous solution of 20% glucose), blood samples were collected from the tail vein of each animal into heparin-containing tubes at serial time points for 2 h. Plasma was prepared immediately, frozen, and stored at -20°C prior to analysis.
Plasma DPP-IV activity was determined as described above. A 20 μL plasma sample was mixed with 5 μL of reaction buffer (140 mM NaCl, and 10 mM KCl, 25 mM Tris-HCl, pH 7.4, 1% bovine serum albumin) and 10 μL of buffer containing 60 μM H-Gly-Pro-AMC. After incubation at room temperature for 30 min, the reaction was stopped by the addition of 20 μL of 25% aqueous acetic acid and fluorescence was measured using an excitation wavelength of 360 nm and an emission wavelength of 460 nm.

A further series has as its system blood glucose. The series can be described thus: Oral glucose tolerance test (OGTT), blood glucose. In kind it is in vivo. Particulars: Wistar/ST rats, 1 mg/kg oral, glucose challenge 1 g/kg. As to the method:
(§2) After 30 min (t = 0), oral glucose challenges (1 g/kg) were conducted and then plasma DPP-IV activities and blood glucose levels were monitored at various intervals over a 2 h period.
as §1
(§3) Plasma glucose and insulin were determined with a glucometer (Glutest Pro; SKK, Japan) and a rat insulin ELISA kit (Shibayagi, Japan), respectively, according to the manufacturer's instructions. Statistical analyses were performed using Microsoft Excel. Individual comparisons among more than two experimental groups were assessed using ANOVA, with Fisher's Least Significant Difference post hoc test. Differences were considered significant at P values < 0.05. Analysis of dose-response data was performed by Dunnett's test.

Series [1] can be described thus: Pharmacokinetics (PK) in SD rats. In kind it is in vivo, Sprague-Dawley (SD) rats. Particulars: for AUC(0-t): read-out: AUC 0-9 h. How it is done:
Sprague-Dawley (SD) rats were housed under standard conditions and allowed free access to water and a commercial diet. On the day before the experiment, rats were fasted overnight and for the first 12 h of the experiment. […] Blood samples were collected from the jugular vein of each animal with a heparinized syringe under diethyl ether anesthesia at serial time points for 24 h after drug administration. Plasma was obtained by centrifugation at 4°C and stored at -70°C until analysis. Protein precipitation was carried out by the addition of the internal standard solution (70% CH3CN with 0.2% acetic acid) to samples. The tubes underwent vigorous shaking and centrifugation for 5 min; then the supernatant was subjected to LC/MS/MS analysis. Peak areas were determined using Xcalibur® software (Thermo Electron Corporation, UK) and AUC values were calculated by the trapezoidal rule.

For the next series, the system named is plasma insulin. Briefly: Plasma insulin after glucose challenge in OGTT. In kind it is in vivo. Particulars: Wistar/ST rats, oral 4b, 10 min after glucose challenge. As to the method: as §2, §1, §3
In the next series the test system is CYP3A. The series can be described thus: CYP3A enzyme induction in rat hepatocytes (testosterone 6β-hydroxylation). In kind it is in vitro ADME. Particulars: rat hepatocytes, 1, 10, 50 μM, 2 days. How it is done:
Enzyme induction was evaluated as follows: Hepatocytes isolated from male SD rats were maintained in culture for 1 day before treatment with the test compound or P-450 inducers. The cells were treated with the test compound (1, 10, 50 μM), β-naphthoflavone (10 μM, CYP1A inducer), phenobarbital (50 μM, CYP2B inducer), dexamethasone (10 μM, CYP3A inducer), or vehicle (0.1% DMSO final volume; used as negative control) for 2 days.
Induction of CYP1A, CYP2B, and CYP3A enzymes was determined based on measurements of 7-ethoxyresorufin O-dealkylation, 7-pentoxyresorufin O-dealkylation, and testosterone 6β-hydroxylation, respectively. Assays were started by the addition of Krebs-Henseleit buffer containing 8 μM 7-ethoxyresorufin, 10 μM 7-pentoxyresorufin, or 250 μM testosterone at a volume of 100 μL per well. After incubation at 37°C for 30 min, aliquots were removed and analyzed by fluorometry (an excitation wavelength of 538 nm and an emission wavelength of 590 nm) or LC/MS/MS to determine the quantities of metabolites formed. Any test compound causing a dose-dependent change equal to or greater than 10% of the positive control (see formula below) was considered an enzyme inducer.
% positive control=(activity of test - compound treated cells - activity of negative control)/(activity of positive control - activity of negative control)×100

Series [2] can be described thus: Metabolic stability in rat liver microsomes. In kind it is in vitro ADME. Particulars: 5 μM. As to the method: (§4) The incubation mixture containing 0.25 mg of rat or human liver microsomes was preincubated with an NADPH-generating system for 5 min at 37°C. The reaction was started by the addition of 5 μL of a DMSO solution containing the test compound (5 μM). At t = 0 and at two additional time points between 0 and 30 min, aliquots (100 μL) were removed and added to termination mixtures (CH3CN). Proteins were sedimented by centrifugation and an aliquot of the supernatant was analyzed by LC/MS/MS.
(§5) In determinations of the in vitrot1/2, the analyte/ISTD peak area ratio was converted to percentage of drug remaining by assigning a value of 100% to the peak area ratio at t = 0. The slope of the regression line fitted to the log (percentage remaining) versus incubation time relationship (-k) was used in the conversion of raw data to the in vitrot1/2 value. In vitro CLint was calculated using the following formula.
(§6) CLint=0.693/Invitro t1/2×mL incubation/mg microsomes×45 mg microsomes/mg liver×[…] (b.w.)

Series [3] can be described thus: Metabolic stability in human liver microsomes. The note with it: read-out: CL'int Human (converted). In kind it is in vitro ADME. As to the method:
as §4, §5, §6

The target of another series is T2, human plasma DPP-IV (Homo sapiens, UniProt P27487).
T2 construct: from tissue; host or cells: human plasma
T2 sequence (P27487 39-766 limits assumed): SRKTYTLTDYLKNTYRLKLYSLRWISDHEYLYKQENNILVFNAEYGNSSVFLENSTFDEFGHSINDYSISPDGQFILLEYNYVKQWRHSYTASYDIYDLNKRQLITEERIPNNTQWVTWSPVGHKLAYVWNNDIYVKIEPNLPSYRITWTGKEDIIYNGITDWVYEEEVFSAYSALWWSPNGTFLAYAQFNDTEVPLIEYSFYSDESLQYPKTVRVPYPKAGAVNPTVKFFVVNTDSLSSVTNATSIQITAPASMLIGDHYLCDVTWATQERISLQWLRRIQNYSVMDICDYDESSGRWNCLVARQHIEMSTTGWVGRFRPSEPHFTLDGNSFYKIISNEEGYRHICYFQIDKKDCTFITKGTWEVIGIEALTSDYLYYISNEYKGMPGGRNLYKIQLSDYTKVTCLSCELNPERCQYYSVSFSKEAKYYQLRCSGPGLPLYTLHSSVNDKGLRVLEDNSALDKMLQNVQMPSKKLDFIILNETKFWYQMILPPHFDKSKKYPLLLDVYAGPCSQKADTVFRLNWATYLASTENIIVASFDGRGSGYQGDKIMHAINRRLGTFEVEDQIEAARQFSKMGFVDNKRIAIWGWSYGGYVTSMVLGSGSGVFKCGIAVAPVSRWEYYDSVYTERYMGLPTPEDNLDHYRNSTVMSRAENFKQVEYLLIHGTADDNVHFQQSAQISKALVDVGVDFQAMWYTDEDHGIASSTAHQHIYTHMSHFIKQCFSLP
The series can be described thus: IC50 with respect to human plasma DPP-IV (separate experiments). In kind it is biochemical. The note with it: separate experiments (footnote a). The text has this:
Table 1 Inhibition of DPP-IV, -8 and -9 activity by 1,3-dihydroisoindoline derivatives 4, their metabolic clearance by rat and human and their enzyme-inducing (CYP1A, CYP2B, and CYP3A) capacity | column: IC50 (nM) / DPP-IV

The nature of series [4]: Further PK studies: metabolite identification by LC-MS, in vivo conversion of 4b into 4l. The note with it: rats, after dosing of 4b. How it is done:
Therefore, further PK studies were conducted. A major metabolite was detected by LC-MS analysis and its structure was determined by comparison of the LC retention time and MS/MS fragmentation pattern with synthetic standards.

[5] abbreviates: Sprague-Dawley, rat, plasma, po 3 mg/kg.
The mark [6] stands for this setting: Sprague-Dawley, rat, plasma, po 10 mg/kg.

T1 sequence (P14740 37-767 limits assumed): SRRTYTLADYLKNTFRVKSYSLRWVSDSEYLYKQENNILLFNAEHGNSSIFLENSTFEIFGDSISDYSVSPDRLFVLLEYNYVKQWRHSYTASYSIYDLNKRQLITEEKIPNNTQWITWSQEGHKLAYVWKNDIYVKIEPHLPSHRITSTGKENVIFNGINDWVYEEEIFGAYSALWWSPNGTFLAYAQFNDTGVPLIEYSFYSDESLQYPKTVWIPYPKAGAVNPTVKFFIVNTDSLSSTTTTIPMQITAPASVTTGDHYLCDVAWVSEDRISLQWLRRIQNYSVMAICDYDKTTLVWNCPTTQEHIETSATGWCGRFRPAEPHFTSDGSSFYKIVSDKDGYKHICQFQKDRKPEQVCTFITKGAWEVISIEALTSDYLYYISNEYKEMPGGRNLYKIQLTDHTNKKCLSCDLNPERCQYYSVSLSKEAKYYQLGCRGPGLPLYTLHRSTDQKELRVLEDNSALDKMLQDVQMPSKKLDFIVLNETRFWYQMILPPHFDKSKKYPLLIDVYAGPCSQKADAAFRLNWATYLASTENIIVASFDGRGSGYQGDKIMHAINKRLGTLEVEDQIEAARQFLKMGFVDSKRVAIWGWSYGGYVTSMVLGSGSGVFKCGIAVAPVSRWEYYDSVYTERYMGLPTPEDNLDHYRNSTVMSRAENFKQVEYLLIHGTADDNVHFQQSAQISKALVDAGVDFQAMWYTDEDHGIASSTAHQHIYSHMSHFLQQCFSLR

On to `Cc1ccc2c(c1)CN(C(=O)CC(C)(C)NCC(=O)N1CCC[C@H]1C#N)C2` [Compound 4b, (S)-1-(2-(2-Methyl-4-(5-methylisoindolin-2-yl)-4-oxobutan-2-ylamino)acetyl)pyrrolidine-2-carbonitrile], for which the “inhibition of DPP-IV estimated from the PK profiles” value on plasma DPP-IV (3-10 mg/kg doses, for several hours, estimated from the PK profiles) is recorded as over 50%. On plasma DPP-IV (rat, Wistar/ST rats, 0.1 mg/kg oral), the inhibition at 0.1 mg/kg turned out to be 30%. In addition, the inhibition at 1 mg/kg on plasma DPP-IV (rat, Wistar/ST rats, over 2 h period after glucose challenge, read-out: inhibition of plasma DPP-IV activity maintained throughout the study) is over 90%; at plasma DPP-IV (rat, Wistar/ST rats, within 30 min post-dose, read-out: inhibition of plasma DPP-IV activity), 95%. The “reduction of glucose levels in OGTT” value in the series with blood glucose is on record as 18%. Besides, the AUC(0-t) came to 39 ng·h/mL in series [1] (Sprague-Dawley, rat, plasma, iv 1 mg/kg); 33 ng·h/mL in series [1] (setting [5]); 156 ng·h/mL in [1] (setting [6]). In addition, the clearance in series [1] (Sprague-Dawley, rat, plasma, iv 1 mg/kg, read-out: CL p (converted)) is 437 mL/min/kg. In addition, in [1] (Sprague-Dawley, rat, plasma, iv 1 mg/kg, read-out: Vd ss), the Vd was 8.28 L/kg. Besides, the Cmax in series [1] (setting [5]) was 37 ng/mL; in series [1] (setting [6]) it was 229 ng/mL. Besides, the Tmax in [1] (setting [5]) and in [1] (setting [6]) was 15 min throughout. The “t 1/2α” value in [1] (iv 1 mg/kg, first t 1/2 column) came to 3.72 min; in series [1] (iv 1 mg/kg, second t 1/2), 16.2 min; in series [1] (po 3 mg/kg, second t 1/2) it was 82.2 min; in series [1] (po 10 mg/kg, second t 1/2), 90 min. Besides, the BA in [1] (po 3 mg/kg) is given as 27.7%; in series [1] (po 10 mg/kg), 39.9%. In addition, the “insulin levels at 10 min post-challenge” value with plasma insulin was “increased”. The “Enzyme induction (rat) CYP3A” value in the series on CYP3A is on record as “- (Any test compound causing a dose-dependent change equal to or greater than 10% of the positive control (see formula below) was considered an enzyme inducer)”. Moreover, the “CL'int Rat” value in [2] was 38.3 mL/min/kg. Moreover, the CLint scaled at 5 μM in series [3] was 1.67 mL/min/kg.
At human plasma DPP-IV, `CC(C)(CC(=O)N1Cc2ccc(CO)cc2C1)NCC(=O)N1CCC[C@H]1C#N` [Compound 4l, (S)-1-(2-(4-(5-(Hydroxymethyl)isoindolin-2-yl)-2-methyl-4-oxobutan-2-ylamino)acetyl)pyrrolidine-2-carbonitrile] displayed an IC50 of 1.9 nM. In addition, the “in vivo conversion (of 4b into metabolite 4l)” value in [4] was 60%.
